Measurements taken from ChEMBL document CHEMBL1141496, “Biphenylsulfonyl-thiophene-carboxamidine inhibitors of the complement component C1s” (Bioorg Med Chem Lett, 2008).
In brackets after ≈: the same amount, converted by molar mass.

Tests used:
[1] = target: T1, Complement C1s subcomponent (Homo sapiens, UniProt P09871); experiment: Inhibition of Complement C1s subcomponent
T1 sequence (P09871 whole entry): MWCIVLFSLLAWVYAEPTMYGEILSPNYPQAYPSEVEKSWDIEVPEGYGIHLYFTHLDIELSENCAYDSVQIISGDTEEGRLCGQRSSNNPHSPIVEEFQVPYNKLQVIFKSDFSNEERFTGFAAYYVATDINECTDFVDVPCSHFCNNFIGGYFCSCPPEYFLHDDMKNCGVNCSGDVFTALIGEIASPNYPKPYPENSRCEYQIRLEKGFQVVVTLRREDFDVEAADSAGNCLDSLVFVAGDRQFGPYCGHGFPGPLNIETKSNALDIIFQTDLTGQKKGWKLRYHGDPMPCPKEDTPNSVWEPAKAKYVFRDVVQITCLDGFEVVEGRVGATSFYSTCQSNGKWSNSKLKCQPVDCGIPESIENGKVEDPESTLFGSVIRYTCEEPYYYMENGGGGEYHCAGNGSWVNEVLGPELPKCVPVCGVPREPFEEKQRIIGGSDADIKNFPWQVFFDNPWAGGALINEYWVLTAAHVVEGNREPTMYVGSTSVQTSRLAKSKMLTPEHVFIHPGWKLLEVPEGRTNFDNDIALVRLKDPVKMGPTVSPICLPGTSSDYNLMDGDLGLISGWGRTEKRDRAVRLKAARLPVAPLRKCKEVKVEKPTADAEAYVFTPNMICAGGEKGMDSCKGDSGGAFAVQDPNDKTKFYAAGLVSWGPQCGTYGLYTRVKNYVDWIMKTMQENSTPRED

[2] = Aqueous solubility at physiological pH; type: physicochemical
hERG (KCNH2) = hERG (KCNH2) (Homo sapiens, UniProt Q12809); experiment: Inhibition of human ERG at 10 uM by patch clamp assay
Sequence of hERG (KCNH2) (Q12809 whole entry): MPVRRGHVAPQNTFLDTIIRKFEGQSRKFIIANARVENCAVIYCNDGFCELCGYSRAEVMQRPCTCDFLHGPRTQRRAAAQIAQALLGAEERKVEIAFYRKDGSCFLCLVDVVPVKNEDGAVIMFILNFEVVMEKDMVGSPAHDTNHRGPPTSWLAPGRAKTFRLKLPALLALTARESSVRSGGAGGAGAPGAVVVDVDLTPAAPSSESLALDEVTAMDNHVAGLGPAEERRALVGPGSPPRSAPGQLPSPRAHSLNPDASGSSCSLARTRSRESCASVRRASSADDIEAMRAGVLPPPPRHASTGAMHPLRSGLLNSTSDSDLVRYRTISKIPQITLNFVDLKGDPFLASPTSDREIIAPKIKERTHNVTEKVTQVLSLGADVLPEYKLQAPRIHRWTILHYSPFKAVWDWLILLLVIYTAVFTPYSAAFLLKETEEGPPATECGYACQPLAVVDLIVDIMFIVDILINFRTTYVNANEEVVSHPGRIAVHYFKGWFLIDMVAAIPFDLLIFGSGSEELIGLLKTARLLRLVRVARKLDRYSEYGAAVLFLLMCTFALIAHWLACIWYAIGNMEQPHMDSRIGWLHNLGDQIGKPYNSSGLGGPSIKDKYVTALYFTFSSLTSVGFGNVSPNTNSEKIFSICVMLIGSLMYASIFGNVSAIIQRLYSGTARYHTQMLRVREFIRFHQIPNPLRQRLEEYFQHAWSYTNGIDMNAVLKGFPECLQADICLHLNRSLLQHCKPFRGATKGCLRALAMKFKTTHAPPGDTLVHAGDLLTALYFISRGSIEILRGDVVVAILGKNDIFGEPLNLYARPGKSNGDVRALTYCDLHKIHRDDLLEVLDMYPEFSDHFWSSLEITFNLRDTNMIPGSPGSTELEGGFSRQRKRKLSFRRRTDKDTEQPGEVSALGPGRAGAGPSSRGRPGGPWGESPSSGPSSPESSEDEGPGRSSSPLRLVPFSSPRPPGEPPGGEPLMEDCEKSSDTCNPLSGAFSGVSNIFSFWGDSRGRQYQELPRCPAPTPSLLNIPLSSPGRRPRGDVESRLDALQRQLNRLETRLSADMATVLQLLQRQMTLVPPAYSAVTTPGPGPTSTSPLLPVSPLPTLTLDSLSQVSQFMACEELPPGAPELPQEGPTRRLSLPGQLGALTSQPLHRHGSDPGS

[3] = Volume of distribution in rat at 2 mg/kg, iv; type: ADME, organism-based; design: dose 2 mg/kg, route intravenous; details: in vivo
[4] = Clearance in rat at 2 mg/kg, iv; type: ADME, organism-based; design: dose 2 mg/kg, route intravenous; details: in vivo
[5] = Half life in rat at 2 mg/kg, iv; type: ADME, organism-based; design: dose 2 mg/kg, route intravenous; details: in vivo

SMILES: CSc1sc(C(=N)N)cc1S(=O)(=O)c1cccc(-c2ccccc2Cl)c1
- Ki [1]: 40 nM

SMILES: CSc1sc(C(=N)N)cc1S(=O)(=O)c1cccc(-c2ccccc2C)c1
- Ki [1]: 30 nM

SMILES: CSc1sc(C(=N)N)cc1S(=O)(=O)c1cccc(-c2c(C)cccc2NC(=O)CS(C)(=O)=O)c1
- Ki [1]: 120 nM
- solubility [2]: 43 µM (≈ 23.1 µg/mL)

SMILES: COc1ccc(-c2cccc(S(=O)(=O)c3cc(C(=N)N)sc3SC)c2)cc1
- Ki [1]: 350 nM

SMILES: CSc1sc(C(=N)N)cc1S(=O)(=O)c1cccc(-c2ccccc2CO)c1
- Ki [1]: 120 nM

SMILES: CSc1sc(C(=N)N)cc1S(=O)(=O)c1cccc(-c2c(C)cccc2CO)c1
- Ki [1]: 50 nM

SMILES: CSc1sc(C(=N)N)cc1S(=O)(=O)c1cccc(-c2c(C)cccc2NC(=O)CCCCC(=O)O)c1
- Ki [1]: 42 nM
- solubility [2]: 40 µM (≈ 21.8 µg/mL)

SMILES: CSc1sc(C(=N)N)cc1S(=O)(=O)c1cccc(-c2c(C)cccc2NC(=O)NCCc2nn[nH]n2)c1
- inhibition at 10 µM (hERG (KCNH2)): 1%
- Ki [1]: 64 nM

SMILES: CSc1sc(C(=N)N)cc1S(=O)(=O)c1cccc(-c2c(C)cccc2NC(=O)NCCCCCC(=O)O)c1
- inhibition at 10 µM (hERG (KCNH2)): 5.8%
- Vd [3]: 2.65 L/kg
- Ki [1]: 22 nM
- solubility [2]: 39 µM (≈ 22.4 µg/mL)
- clearance [4]: 228 mL/min/kg
- half-life [5]: 0.2 h

SMILES: CSc1sc(C(=N)N)cc1S(=O)(=O)c1cccc(-c2ccc(C)cc2)c1
- Ki [1]: 250 nM

SMILES: CSc1sc(C(=N)N)cc1S(=O)(=O)c1cccc(-c2ccccc2)c1
- Ki [1]: 260 nM

SMILES: COc1cccc(-c2cccc(S(=O)(=O)c3cc(C(=N)N)sc3SC)c2)c1
- Ki [1]: 490 nM

SMILES: C=Cc1ccccc1-c1cccc(S(=O)(=O)c2cc(C(=N)N)sc2SC)c1
- Ki [1]: 140 nM

SMILES: CSc1sc(C(=N)N)cc1S(=O)(=O)c1cccc(-c2cccc(C)n2)c1
- inhibition at 10 µM (hERG (KCNH2)): 66%
- Vd [3]: 15 L/kg
- Ki [1]: 40 nM
- solubility [2]: 22 µM (≈ 8.88 µg/mL)
- clearance [4]: 283 mL/min/kg
- half-life [5]: 2 h

SMILES: CSc1sc(C(=N)N)cc1S(=O)(=O)c1cccc(-c2ccc(O)cc2)c1
- Ki [1]: 190 nM

SMILES: COc1ccccc1-c1cccc(S(=O)(=O)c2cc(C(=N)N)sc2SC)c1
- Ki [1]: 610 nM

SMILES: CSc1sc(C(=N)N)cc1S(=O)(=O)c1cccc(-c2cccc(O)c2)c1
- Ki [1]: 150 nM

SMILES: CSc1sc(C(=N)N)cc1S(=O)(=O)c1cccc(-c2c(C)cccc2NC(=O)CCCS(C)(=O)=O)c1
- Vd [3]: 2.03 L/kg
- Ki [1]: 14 nM
- solubility [2]: 35 µM (≈ 19.8 µg/mL)
- clearance [4]: 130 mL/min/kg
- half-life [5]: 1.8 h

SMILES: CSc1sc(C(=N)N)cc1S(=O)(=O)c1cccc(-c2c(C)cccc2N)c1
- Ki [1]: 20 nM

SMILES: CSc1sc(C(=N)N)cc1S(=O)(=O)c1cccc(Br)c1
- Ki [1]: 360 nM

SMILES: CSc1sc(C(=N)N)cc1S(=O)(=O)c1cccc(-c2ccccc2O)c1
- Ki [1]: 460 nM

SMILES: CSc1sc(C(=N)N)cc1S(=O)(=O)c1cccc(-c2cccc(C)c2)c1
- Ki [1]: 1850 nM

SMILES: CSc1sc(C(=N)N)cc1S(=O)(=O)c1cccc(-c2c(C)cccc2C(=O)O)c1
- Ki [1]: 150 nM
